Results on one compound are retold here after EPA's ToxValDB 9.5 (doi:10.2903/j.efsa.2008.139r).

The term NOAEL denotes the highest tested level that showed no adverse finding.

Bounds are passed on as bounds.

Data set [1] has as its system Canidae. Particulars: oral, Dog Other, organ weight.
Data set [2] deals with Daphnia magna. Conditions: chronic/long-term.
In data set [3] the test system is Lepomis macrochirus. Conditions: acute; mortality.
Data set [4] concerns Rattus norvegicus.
In data set [5] the test system is Apis mellifera. Particulars: acute, mortality.
Data set [6] concerns Perdix sp. Particulars: acute; oral; unspecified; mortality.
Data set [7] concerns Oncorhynchus mykiss. Particulars: chronic/long-term.
Data set [8] deals with Colinus virginianus.
Data set [9] deals with Oryctolagus sp. Conditions: developmental; development.
For data set [10], the system named is Tagia sp. Particulars: acute; duration: 14 days; mortality.
For data set [11], the system named is Typhlodromus pyri. Put plainly: LR50; higher = less toxic. Conditions: not reported; mortality.

Consider `CCO/N=C(\CC)C1=C(O)CC(c2c(C)cc(C)cc2C)CC1=O` (stereo unspecified) [Tralkoxydim], for which the NOAEL in data set [1] (chronic, duration: 1 years) was found to be 0.5 mg/kg-day; in [1] (subchronic, duration: 90 days), 0.5 mg/kg-day; in data set [4] (developmental, development), 1 mg/kg-day; in data set [4] (reproduction developmental, body weight), 18.2 mg/kg-day. The NOEC in [2] is 2.1 mg/L; in data set [7], 4.6 mg/L; in data set [8] (reproduction developmental), 14.3 mg/kg-day; in data set [9], 20 mg/kg-day. Moreover, the LC50 in data set [3] was > 6.1 µg/mL; in data set [8] (acute, oral, diet, mortality), 1020 mg/kg-day; in data set [10] it was > 1000 mg/kg. Further, the LD50 in [4] (acute, oral, mortality) was 934 mg/kg-day; in data set [5] (dermal), > 100 µg/piece; in data set [5] (oral, unspecified), > 117 µg/piece; in [6], 2020 mg/kg-day. The LR50 in [11] was > 450 g/ha.
